Results taken from paper PMC5214746, “Biological and Chemical Adaptation to Endogenous Hydrogen Peroxide Production in Streptococcus pneumoniae D39” (mSphere, 2017).

Target: T1, S. pneumoniae SpxB (pyruvate oxidase) (Streptococcus pneumoniae, UniProt A0A0H2ZP58)
T1 construct: recombinant from E. coli Rosetta BL21(DE3)/pLysS, pHis-parallel vector, His tag apparently kept
Assay: H2O2 generation, peroxidase-coupled quinoneimine dye at […] nm
Format: biochemical
Conditions: 0.2 mM pyruvate, 50 mM KH2PO4 pH 6, 0.2 mM FAD, 0.2 mM TPP, 0.5 to 2 mM Mg(II) or Mn(II), 37 °C

T1 sequence (A0A0H2ZP58 entry or part of it): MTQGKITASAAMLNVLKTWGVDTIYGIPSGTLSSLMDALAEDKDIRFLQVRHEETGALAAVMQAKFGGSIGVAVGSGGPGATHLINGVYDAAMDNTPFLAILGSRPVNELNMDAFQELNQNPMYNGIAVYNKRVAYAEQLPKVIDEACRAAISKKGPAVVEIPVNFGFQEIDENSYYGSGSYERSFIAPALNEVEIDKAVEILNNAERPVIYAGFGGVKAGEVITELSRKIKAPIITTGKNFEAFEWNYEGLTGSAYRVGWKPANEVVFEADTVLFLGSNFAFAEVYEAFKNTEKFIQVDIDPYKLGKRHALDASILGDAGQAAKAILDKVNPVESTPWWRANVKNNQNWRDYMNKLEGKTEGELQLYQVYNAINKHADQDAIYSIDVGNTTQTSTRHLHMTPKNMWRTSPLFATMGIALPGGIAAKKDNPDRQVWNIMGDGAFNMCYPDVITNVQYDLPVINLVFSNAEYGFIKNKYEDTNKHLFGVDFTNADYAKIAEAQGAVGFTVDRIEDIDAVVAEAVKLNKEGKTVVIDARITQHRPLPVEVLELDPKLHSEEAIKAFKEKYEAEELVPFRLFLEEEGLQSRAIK

CC(=O)C(=O)O [sodium pyruvate]
H2O2 generation, peroxidase-coupled quinoneimine dye at 550 nm: Quinoneimine dye formation was monitored in triplicate with the addition of sodium pyruvate
